The target of test [1] is T1, Glucocorticoid receptor (Homo sapiens) (UniProt P04150).
T1 sequence (whole entry): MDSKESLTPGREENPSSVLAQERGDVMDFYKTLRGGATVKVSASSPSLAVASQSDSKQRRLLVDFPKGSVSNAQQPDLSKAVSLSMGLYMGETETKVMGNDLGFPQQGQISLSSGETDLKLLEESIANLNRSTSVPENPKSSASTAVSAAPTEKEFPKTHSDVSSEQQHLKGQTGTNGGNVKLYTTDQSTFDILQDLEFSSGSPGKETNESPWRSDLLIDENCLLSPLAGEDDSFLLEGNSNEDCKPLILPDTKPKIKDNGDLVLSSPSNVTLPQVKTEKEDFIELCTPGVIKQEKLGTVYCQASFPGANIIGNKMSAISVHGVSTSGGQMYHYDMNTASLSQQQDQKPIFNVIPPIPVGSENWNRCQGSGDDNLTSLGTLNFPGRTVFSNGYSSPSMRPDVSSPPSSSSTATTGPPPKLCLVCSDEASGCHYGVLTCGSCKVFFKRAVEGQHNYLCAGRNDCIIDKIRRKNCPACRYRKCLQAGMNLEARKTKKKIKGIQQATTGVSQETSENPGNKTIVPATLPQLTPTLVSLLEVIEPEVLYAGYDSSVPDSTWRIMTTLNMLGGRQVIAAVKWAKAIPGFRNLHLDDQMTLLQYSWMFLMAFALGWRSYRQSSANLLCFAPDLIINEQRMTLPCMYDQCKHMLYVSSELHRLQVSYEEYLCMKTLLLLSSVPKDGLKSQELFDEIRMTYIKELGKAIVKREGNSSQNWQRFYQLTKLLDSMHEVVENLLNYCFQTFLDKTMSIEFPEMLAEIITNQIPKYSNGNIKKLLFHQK
As to the kind of experiment: Transrepression activity at glucocorticoid receptor in human NHDF cells assessed as inhibition of IL-1beta-stimulated AP1 dependent IL-6 repression by ELISA relative to Dexamethasone. Format: cell-based. On the set-up: concentration or dose not given beside the values. On the technique in general: ELISA stands for enzyme-linked immunosorbent assay.

Test [2] addresses T2, Glucocorticoid receptor (Homo sapiens, UniProt P04150).
T2 sequence (P04150 whole entry): T1 sequence (whole entry)
As to the kind of experiment: Displacement of radiolabeled Dexamethasone from glucocorticoid receptor expressed in baculovirus.

A further test addresses T3, Androgen receptor (Homo sapiens, UniProt P10275).
T3 sequence (P10275 whole entry): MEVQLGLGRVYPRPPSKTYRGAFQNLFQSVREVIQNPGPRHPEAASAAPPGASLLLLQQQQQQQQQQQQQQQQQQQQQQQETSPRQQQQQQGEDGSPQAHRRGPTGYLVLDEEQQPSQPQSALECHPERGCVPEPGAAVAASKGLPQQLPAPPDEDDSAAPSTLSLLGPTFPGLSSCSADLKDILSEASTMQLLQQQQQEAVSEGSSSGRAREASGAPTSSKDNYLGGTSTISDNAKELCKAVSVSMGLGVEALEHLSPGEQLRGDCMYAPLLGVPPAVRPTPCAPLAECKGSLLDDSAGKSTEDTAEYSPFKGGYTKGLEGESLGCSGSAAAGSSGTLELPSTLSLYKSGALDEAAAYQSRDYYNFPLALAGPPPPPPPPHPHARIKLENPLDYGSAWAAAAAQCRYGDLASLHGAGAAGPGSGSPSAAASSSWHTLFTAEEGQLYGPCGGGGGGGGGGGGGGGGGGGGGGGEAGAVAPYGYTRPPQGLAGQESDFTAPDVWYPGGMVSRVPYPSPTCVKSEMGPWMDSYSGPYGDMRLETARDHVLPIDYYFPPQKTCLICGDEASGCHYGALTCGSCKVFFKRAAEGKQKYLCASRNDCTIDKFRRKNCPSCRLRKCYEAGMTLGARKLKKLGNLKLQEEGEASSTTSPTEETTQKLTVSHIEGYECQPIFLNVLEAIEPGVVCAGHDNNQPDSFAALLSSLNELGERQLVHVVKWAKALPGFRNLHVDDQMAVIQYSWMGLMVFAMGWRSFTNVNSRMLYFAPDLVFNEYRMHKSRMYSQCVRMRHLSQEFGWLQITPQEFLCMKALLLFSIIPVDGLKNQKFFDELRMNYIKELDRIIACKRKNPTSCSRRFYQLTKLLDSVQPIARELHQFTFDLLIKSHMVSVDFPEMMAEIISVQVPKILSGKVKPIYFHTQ
Put plainly: Binding affinity to androgen receptor.

The target in another test is T4, Progesterone receptor (Homo sapiens, UniProt P06401).
T4 sequence (P06401 whole entry): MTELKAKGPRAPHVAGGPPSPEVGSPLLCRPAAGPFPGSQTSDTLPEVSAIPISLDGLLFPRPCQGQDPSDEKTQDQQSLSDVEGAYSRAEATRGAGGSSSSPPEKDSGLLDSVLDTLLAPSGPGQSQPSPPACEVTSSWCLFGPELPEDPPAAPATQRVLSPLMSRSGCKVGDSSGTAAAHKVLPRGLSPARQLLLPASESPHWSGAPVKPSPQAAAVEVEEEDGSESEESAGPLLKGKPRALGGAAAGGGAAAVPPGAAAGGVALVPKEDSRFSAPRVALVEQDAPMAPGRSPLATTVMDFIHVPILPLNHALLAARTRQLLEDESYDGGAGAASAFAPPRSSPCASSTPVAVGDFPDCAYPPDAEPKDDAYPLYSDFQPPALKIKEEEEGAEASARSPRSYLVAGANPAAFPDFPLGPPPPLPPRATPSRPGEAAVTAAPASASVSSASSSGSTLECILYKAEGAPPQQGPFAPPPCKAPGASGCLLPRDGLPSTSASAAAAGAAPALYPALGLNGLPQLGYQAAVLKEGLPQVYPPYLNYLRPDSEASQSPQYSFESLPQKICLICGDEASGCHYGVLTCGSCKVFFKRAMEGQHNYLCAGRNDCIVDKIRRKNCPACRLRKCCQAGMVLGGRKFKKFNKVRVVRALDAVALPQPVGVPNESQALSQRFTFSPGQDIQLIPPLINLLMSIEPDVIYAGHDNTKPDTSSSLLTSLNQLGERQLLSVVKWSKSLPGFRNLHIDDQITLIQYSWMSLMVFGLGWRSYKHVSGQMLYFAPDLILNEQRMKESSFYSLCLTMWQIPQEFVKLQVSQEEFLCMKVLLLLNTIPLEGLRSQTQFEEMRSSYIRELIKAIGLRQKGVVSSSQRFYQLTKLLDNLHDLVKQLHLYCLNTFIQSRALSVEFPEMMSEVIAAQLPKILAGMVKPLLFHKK
As to the kind of experiment: Binding affinity to progesterone receptor.

Test [3] addresses T2, Glucocorticoid receptor. As to the kind of experiment: Transrepression activity at glucocorticoid receptor in human NHDF cells assessed as inhibition of IL-1beta-stimulated AP1 dependent IL-6 repression by ELISA. Format: cell-based.
Test [4] deals with T1, Glucocorticoid receptor (Homo sapiens). Put plainly: Transrepression activity at glucocorticoid receptor in human HepG2 cells assessed as inhibition of TNFalpha/IL1beta-stimulated NFkappaB-dependent E-selectin repression by luciferase reporter gene assay relative to Dexamethasone. Format: cell-based. On the set-up: scale not given: the % may be the effect or the level left. For orientation: In a reporter assay the amount or activity of a reporter protein is the signal.

For test [5] the target is unchanged. As to the kind of experiment: Agonist activity at glucocorticoid receptor in human HepG2 cells co-transfected with GRE assessed as GRE activation by luciferase reporter gene assay relative to Dexamethasone. The format is functional, cell-based. The arrangement: concentration or dose not given beside the values.
Test [6] concerns the target T2, Glucocorticoid receptor. Put plainly: Agonist activity at glucocorticoid receptor in human HepG2 cells co-transfected with PEPCK assessed as GRE activation by luciferase reporter gene assay. Format: functional, cell-based.
Test [7] deals with T2, Glucocorticoid receptor. As to the kind of experiment: Agonist activity at glucocorticoid receptor in human HepG2 cells co-transfected with GRE assessed as GRE activation by luciferase reporter gene assay. The format is functional, cell-based.
Test [8] deals with T2, Glucocorticoid receptor. Put plainly: Transrepression activity at glucocorticoid receptor in human HepG2 cells assessed as inhibition of TNFalpha/IL1beta-stimulated NFkappaB-dependent E-selectin repression by luciferase reporter gene assay. Format: cell-based.
The target of test [9] is T1, Glucocorticoid receptor (Homo sapiens). Put plainly: Agonist activity at glucocorticoid receptor in human HepG2 cells co-transfected with PEPCK assessed as GRE activation by luciferase reporter gene assay relative to Dexamethasone. The format is functional, cell-based.

Turning to `CCO/N=C1/c2c(cc(F)c(-c3cccc4c(C)c[nH]c34)c2F)NC(C)(C)C1O` (racemic), the Activity in test [1] is 97%; in [4], 98%; in [5] it was 138%; in test [9], 61%. Moreover, the Ki (in general, a dissociation constant, usually derived from enzyme kinetics or from competition with a known ligand) at Glucocorticoid receptor [2] is 0.6 nM; on Androgen receptor it was 430 nM; on Progesterone receptor, 27 nM. The IC50 (as a rule, the point on the concentration scale where inhibition reaches its midpoint) is 5.2 nM at Glucocorticoid receptor [3] and 2.6 nM at Glucocorticoid receptor [8]. Moreover, the EC50 (as a rule, the concentration that produces a half-maximal response) at Glucocorticoid receptor [6] is 115 nM; on Glucocorticoid receptor [7], 1.5 nM.

`C[C@]12C=CC(=O)C=C1CC[C@@H]1[C@@H]2[C@@H](O)C[C@@]2(C)[C@H]1CC[C@]2(O)C(=O)CO`: the Activity in test [5] is 129%.

For `Cc1c[nH]c2c(-c3c(F)cc4c(c3F)/C(=N/Oc3ccccc3)CC(C)(C)N4)cccc12`, the Ki at Glucocorticoid receptor [2] was 31 nM. The Activity in test [4] turned out to be 67%. Moreover, the IC50 at Glucocorticoid receptor [8] stood at 51 nM.

For the compound `CC1(C)C/C(=N\O)c2c(cc(F)c(-c3cccc4cc[nH]c34)c2F)N1`, the Ki on Glucocorticoid receptor [2] came out at 370 nM.

`Cc1c[nH]c2c(-c3c(F)cc4c(c3F)/C(=N/OC(C)(C)C(=O)O)CC(C)(C)N4)cccc12` had a Ki on Glucocorticoid receptor [2] of 2700 nM.

For the compound `CO/N=C1/c2c(cc(F)c(-c3cccc4c(Cl)c[nH]c34)c2F)NC(C)(C)C1O` (stereo not drawn), the values for the Activity in [1] and in test [4] were 99% and 100%, respectively. At Glucocorticoid receptor [2], this compound yielded a Ki of 0.7 nM. Moreover, the IC50 turned out to be 22 nM at Glucocorticoid receptor [3] and 14 nM at Glucocorticoid receptor [8].

For `C[C@H]1c2c(cc(F)c(-c3cccc4cc[nH]c34)c2F)NC(C)(C)[C@@H]1O`, the Activity in [1] was 90%; in [5], 138%; in test [9], 75%. In addition, at Glucocorticoid receptor [6], the EC50 was found to be 53 nM.

Consider `COC(=O)C(C)(C)O/N=C1\CC(C)(C)Nc2cc(F)c(-c3cccc4c(C)c[nH]c34)c(F)c21`, for which, on Glucocorticoid receptor [2], the affinity, expressed as Ki, was 1.5 nM. In test [4], the Activity turned out to be 87%. Moreover, at Glucocorticoid receptor [8], the IC50 came out at 22 nM.

As to `CC1(C)C/C(=N\OC(C)(C)C)c2c(cc(F)c(-c3cccc4cc[nH]c34)c2F)N1`, the Activity was 57% in test [1] and 93% in test [4]. On Glucocorticoid receptor [2], this compound came in with a Ki of 7 nM. The IC50 on Glucocorticoid receptor [3] turned out to be 40 nM; on Glucocorticoid receptor [8], 3.5 nM.

For `Cc1c[nH]c2c(-c3c(F)cc4c(c3F)/C(=N/OCc3ccccc3)CC(C)(C)N4)cccc12`, the inhibitory constant (Ki) at Glucocorticoid receptor [2] is 5.8 nM. For the same compound, the Activity in [4] is 74%. Further, the IC50 on Glucocorticoid receptor [8] stood at 8.8 nM.

Compound `CO/N=C1\CC(C)(C)Nc2cc(F)c(-c3cccc4cc[nH]c34)c(F)c21` returned a Ki on Glucocorticoid receptor [2] of 7 nM. Moreover, the Activity in [4] came out at 83%. Further, on Glucocorticoid receptor [8], the IC50 is 42 nM.

On Glucocorticoid receptor [2], `CCO/N=C1\CC(C)(C)Nc2cc(F)c(-c3cccc4cc[nH]c34)c(F)c21` displayed a Ki of 0.4 nM. Besides, the Activity in [4] was 91%. In addition, the IC50 at Glucocorticoid receptor [8] came out at 6.9 nM.

These data come from ChEMBL document CHEMBL1759905, “Nonsteroidal 2,3-dihydroquinoline glucocorticoid receptor agonists with reduced PEPCK activation” (Bioorg Med Chem Lett, 2011).
